Like-named read-outs stand apart in the source and are kept apart here.
Key:
BEAS-2B = assay: MTT cytotoxicity in nonmalignant bronchial epithelium cells; assay type: cell-based; details: for GI50 / IC (TGI): Homo sapiens, BEAS-2B, nonmalignant cells, 48 h; for GI50: read-out: GI50 BEAS-2B; for IC (TGI): read-out: TGI BEAS-2B; for Selectivity index (SI) = GI50 (BEAS-2B)/GI50 (HTB-54): lung
Method: (§1) Cell lines were provided by the European Collection of Cell Cultures (ECACC) or by the American Type Culture Collection (ATCC). Seven cell lines were used: MCF-7 (breast adenocarnicoma), 184B5 (nonmalignant, mammary gland derived), CCRF-CEM (lymphoblastic leukemia), HT-29 (colon carcinoma), HTB-54 (lung carcinoma), BEAS-2B (nonmalignant, derived from the bronchial epithelium) and PC-3 (prostate carcinoma). MCF-7, CCRF-CEM, HT-29, HTB-54, BEAS-2B and PC-3 cell lines were grown in RPMI medium (Gibco) supplemented with 10% fetal bovine serum (FBS; Gibco), 100 units/mL penicillin and […] streptomycin (Gibco). 184B5 cells were grown in DMEM/F12 medium supplemented with 5% FBS, 1 × ITS (Lonza), 100 nM hydrocortisone (Aldich), 2 mM sodium pyruvate (Lonza), 20 ng/mL EGF (Sigma-Aldrich), 0.3 nM trans-retinoic acid (Sigma-Aldrich), 100 units/mL penicillin and […] streptomycin. Cells were maintained at 37 °C and 5% CO2.
(§2) The cytotoxic effect of each substance was tested by the MTT method. Each compound was initially dissolved in DMSO at a concentration of 0.01 M, and serial dilutions were prepared with nonsupplemented medium. The cytotoxic effect of each compound was tested at 50 and 10 µM as a first screening. […]
(§3) A total of 1 × 10^4 cells/well in 96-well plates were treated with increasing concentrations of the corresponding compounds for 48 h at 37 °C in a humidified atmosphere containing 5% CO2. Then, cells were incubated with 50 µL of MTT (2 mg/mL stock) for 4 h. The medium was then removed by aspiration, and the formazan crystals were dissolved in […] of DMSO. […] Data were obtained from at least 3 independent experiments performed in quadruplicate. The standard error of the means (SEM) for the cytotoxic parameters was calculated applying the standard deviation formula to the mean values of each parameter for the three independent experiments performed.
(§4) . Cisplatin was used as a standard drug. […]. […] The presence of electron-withdrawing groups (-NO2, -CF3, -Cl) in the phenyl ring favored the cytotoxic activity in the amides, but in the phosphoramidates, the best results were obtained for aliphatic chains methoxy (II.1b, II.2b) and ethoxy (II.1d, II.2d). […].
(§5) The lack of selectivity toward cancerous cells is one of the major issues during the discovery and development of new anticancer agents. Therefore, we evaluated the cytotoxic activity of our compounds against two cell lines derived from nonmalignant breast tissue (184B5) and no malignant bronchial epithelium (BEAS-2B) (Table 2). […].

[1] = as above; assay type: cell-based; details: human; for LC50 (50% lethal concentration): nonmalignant cells, 48 h, read-out: LC50 BEAS-2B
Method: as §1, §2, §3, §4, §5

PC-3 = assay: cells; assay type: cell-based; details: Homo sapiens; for GI50: read-out: GI50 PC-3; for LC50: read-out: LC50 PC-3; for IC (TGI): read-out: TGI PC-3
Method: as §1, §2, §3, §4

HTB-54 = assay: cells; assay type: cell-based; details: Homo sapiens; for GI50: read-out: GI50 HTB54; for CC50: read-out: LC50 HTB54; for IC (TGI): read-out: TGI HTB54
Method: as §1, §2, §3, §4

184B5 = assay: MTT cytotoxicity in nonmalignant mammary gland derived cells; assay type: cell-based; details: for GI50 / IC (TGI): Homo sapiens, 184B5, nonmalignant cells, 48 h; for GI50: read-out: GI50 184B5; for IC (TGI): read-out: TGI 184B5; for Selectivity index (SI) = GI50 (184B5)/GI50 (MCF-7): breast
Method: as §1, §2, §3, §4, §5

[2] = as above; assay type: cell-based; details: human
Method: as §1, §2, §3, §4, §5

CCRF-CEM = assay: cells; details: Homo sapiens, 48 h; for activity at 10 µM: read-out: Cell growth (%) CCRF-CEM; for GI50: read-out: GI50 CCRF-CEM; for CC50: read-out: LC50 CCRF-CEM; for IC (TGI): read-out: TGI CCRF-CEM
HT-29 = assay: cells; details: Homo sapiens, HT-29, 48 h; for activity at 10 µM: read-out: Cell growth (%) HT-29; for GI50: read-out: GI50 HT-29; for CC50: read-out: LC50 HT-29; for IC (TGI): read-out: TGI HT-29
MCF-7 = assay: cells; details: Homo sapiens, MCF7, 48 h; for activity at 10 µM: read-out: Cell growth (%) MCF-7; for GI50: read-out: GI50 MCF-7, 48 h, average ± SEM; for CC50: read-out: LC50 MCF-7; for IC (TGI): read-out: TGI MCF-7
[3] = DPPH radical scavenging assay; details: for DPPH activity inhibition: after 30 min
Method: The DPPH (1,1-diphenyl-2-picrylhydrazyl radical) assay measures the hydrogen donation ability of the antioxidant to convert the stable DPPH free radical into 1,1-diphenyl-2-(2,4,6-trinitrophenyl)-hydrazine. After radical reaction with the compounds, a decrease in the absorbance was detected at 517 nm, which is accompanied by a change of color from violet to light-yellow. The target compounds were dissolved in methanol to make 1 mg/mL stock solutions, which were diluted to five concentrations as test samples. Ascorbic acid was used as a standard, and the experiment was carried out on 96-well plates. The DPPH solution was prepared at a 100 µM concentration. For each test, 100 µL of DPPH solution was added to 100 µL of methanolic solution containing the tested derivatives, and the absorbance was determined at different time points. All the measurements were carried out in triplicate. Results were expressed as the percentage of the radical scavenged, calculated using the following formula:(1) % DPPH radical scavenging=Acontrol − Asample/Acontrol × 100 where Acontrol refers to the absorbance of the negative control, and Asample refers to the absorbance of the tested compounds. Results are expressed as a percentage of DPPH radical scavenged ± SEM.
. Ascorbic acid and Trolox were used as radical scavenger gold standards. […]. No correlation was found for either structure–radical scavenging activity or antitumor–radical scavenging activity, except for compound I.2f, one of the selected cytotoxic agents. To further confirm this antioxidant activity, three compounds (I.1e, I.1g and I.2i) were also evaluated as DPPH radical scavengers at a lower concentration of 0.003 mg/mL (Figure 3B).

[4] = nonmalignant cells, 48 h, read-out: LC50 184B5

SMILES	GI50 (BEAS-2B)	IC (TGI) (BEAS-2B)	GI50 (PC-3; PC-3, 48 h, average ± SEM)	IC (TGI) (PC-3; PC-3, 48 h, average ± SEM)	GI50 (HTB-54; HTB-54, 48 h, average ± SEM)	IC (TGI) (HTB-54; HTB-54, 48 h, average ± SEM)	GI50 (184B5)	IC (TGI) (184B5)	Selectivity index (SI) = GI50 (184B5)/GI50 (MCF-7) (184B5)	activity at 10 µM (CCRF-CEM)	GI50 (CCRF-CEM)	CC50 (CCRF-CEM)	IC (TGI) (CCRF-CEM)	activity at 10 µM (HT-29)	GI50 (HT-29)	CC50 (HT-29)	IC (TGI) (HT-29)	activity at 10 µM (MCF-7)	GI50 (MCF-7)	CC50 (MCF-7)	other results
CCOP(=O)(Nc1ccc([Se][Se]c2ccc(NP(=O)(OCC)OCC)cc2)cc1)OCC [II.1d]	5.43 µM	6.98 µM	6.4 ± 0.2 µM	8.6 ± 0.2 µM	5.9 ± 0.3 µM	7.7 ± 0.2 µM	5.45 µM	7.01 µM	2.38	-86.7%	0.4 ± 0.2 µM	3.4 ± 0.2 µM	1.7 ± 0.2 µM	-69.8%	1.7 ± 0.1 µM	4.3 ± 0.1 µM	3 ± 0.1 µM	-57.5%	2.3 ± 0.2 µM	8.8 ± 0.8 µM	Selectivity index (SI) = GI50 (BEAS-2B)/GI50 (HTB-54) (BEAS-2B): 0.92; LC50 (50% lethal concentration) [1]: 8.54 µM; LC50 (PC-3; PC-3, 48 h, average ± SEM): 35.1 ± 4.9 µM; CC50 (HTB-54; HTB-54, 48 h, average ± SEM): 9.4 ± 0.1 µM; CC50 [2, 4]: 8.58 µM; IC (TGI) (MCF-7): 4.2 ± 0.3 µM
COP(=O)(Nc1ccc([Se][Se]c2ccc(NP(=O)(OC)OC)cc2)cc1)OC [II.1b]	6.48 µM	41.3 µM	17.1 ± 1.7 µM	46.9 ± 2.3 µM	7.2 ± 3.2 µM	37.1 ± 3.2 µM	5.75 µM	7.2 µM	1.36	-74.1%	2 ± 0.1 µM	8 ± 2.8 µM	3.9 ± 0.4 µM	70.7%	20 ± 3.1 µM	74.9 ± 0.6 µM	47.4 ± 2 µM	-13.9%	4.3 ± 0.6 µM	56.9 ± 5.4 µM	Selectivity index (SI) = GI50 (BEAS-2B)/GI50 (HTB-54) (BEAS-2B): 0.84; LC50 (50% lethal concentration) [1]: > 100 µM; LC50 (PC-3; PC-3, 48 h, average ± SEM): 76.6 ± 2.5 µM; CC50 (HTB-54; HTB-54, 48 h, average ± SEM): 76 ± 4.2 µM; CC50 [2, 4]: 8.65 µM; IC (TGI) (MCF-7): 8.8 ± 0.1 µM
O=C(Nc1ccc([Se][Se]c2ccc(NC(=O)c3ccc(Cl)cc3)cc2)cc1)c1ccc(Cl)cc1 [I.1b]	1.11 µM	42.8 µM	7.7 ± 2.2 µM	> 100 µM	> 100 µM	> 100 µM	7.08 µM	> 100 µM	1.57	45.5%	9 ± 1.6 µM	> 100 µM	72.6 ± 1.1 µM	-10.7%	3 ± 1.8 µM	> 100 µM	7.7 ± 0.6 µM	19.8%	4.6 ± 0.5 µM	> 100 µM	LC50 (50% lethal concentration) at 48 h [1]: > 100 µM; LC50 (PC-3; PC-3, 48 h): > 100 µM; CC50 (HTB-54; HTB-54, 48 h): > 100 µM; LC50 (50% lethal concentration) at 48 h [2]: > 100 µM; IC (TGI) (MCF-7): > 100 µM
N#C[Se]c1ccc(NC(=O)c2cccs2)cc1 [I.2i]										43.6%				85.3%				74.5%			DPPH radical scavenging activity ([3]; 0.003 mg/mL): some moderate effect was observed; DPPH radical scavenging activity ([3]; 0.03 mg/mL, 0-120 min): the most active radical scavenger; DPPH activity inhibition ([3]; 0.03 mg/mL): greater than 35%
Cc1ccc(C(=O)Nc2ccc([Se][Se]c3ccc(NC(=O)c4ccc(C)cc4)cc3)cc2)cc1 [I.1g]										105%				109%				57.5%			DPPH radical scavenging activity ([3]; 0.003 mg/mL): some moderate effect was observed; DPPH activity inhibition ([3]; 0.03 mg/mL): greater than 35%
CSc1ccc(C(=O)Nc2ccc([Se][Se]c3ccc(NC(=O)c4ccc(SC)cc4)cc3)cc2)cc1 [I.1n]										72.1%				50.6%				64%			DPPH activity inhibition ([3]; 0.03 mg/mL): greater than 35%
N#C[Se]c1ccc(NC(=O)c2ccco2)cc1 [I.2h]	8.47 µM	67.3 µM	> 100 µM	> 100 µM	> 100 µM	> 100 µM	36.1 µM	> 100 µM	5.66	47.1%	21.8 ± 3.1 µM	> 100 µM	> 100 µM	46.7%	42.7 ± 1.2 µM	> 100 µM	> 100 µM	41.6%	7.4 ± 1.9 µM	94.9 ± 4.7 µM	LC50 (50% lethal concentration) [1]: > 100 µM; LC50 (PC-3; PC-3, 48 h, average ± SEM): > 100 µM; CC50 (HTB-54; HTB-54, 48 h, average ± SEM): > 100 µM; LC50 (50% lethal concentration) [2, 4]: > 100 µM; IC (TGI) (MCF-7): 50.4 ± 1.3 µM

— article PMC8069832, “New Amides and Phosphoramidates Containing Selenium: Studies on Their Cytotoxicity and Antioxidant Activities in Breast Cancer” (Antioxidants, 2021)
